Laboratory results: ChEMBL document CHEMBL1697821, “Development of a phospholipidosis database and predictive quantitative structure-activity relationship (QSAR) models” (Toxicol Mech Methods, 2008)

Tested on: Phospholipidosis
Assay: Literature-mined public compounds from Kruhlak et al phospholipidosis modelling dataset

| SMILES | Phospholipidosis |
| --- | --- |
| CCC1(c2ccccc2)C(=O)NC(=O)NC1=O [PHENOBARBITAL] | Negative: confirmed by electron microscopy |
| C[N+]1(C)[C@@H]2CC[C@H]1C[C@@H](OC(=O)C(O)c1ccccc1)C2.[Br-] (some centres undefined) [HOMATROPINE METHYLBROMIDE] | Negative: based on the absence of positive reported data from WMDD |
| CC(C)N(CCC(CCN1CCCCC1)(C(N)=O)c1ccccc1Cl)C(C)C (centres undefined) [DISOBUTAMIDE] | Positive: strong inducer confirmed by electron microscopy |
| CN1CCN2c3ccccc3Cc3ccccc3C2C1 (centres undefined) [MIANSERIN] | Positive: weak inducer based on presence of foamy macrophages and cytoplasmic vacuolations |
| CC(C)N(CCC(C(N)=O)(c1ccccc1)c1ccccn1)C(C)C (centres undefined) [DISOPYRAMIDE] | Negative: based on the absence of positive reported data from WMDD |
| CNCCCC1c2ccccc2C=Cc2ccccc21 [PROTRIPTYLINE] | Negative: based on the absence of positive reported data from WMDD |
| CC1=C(/C=C/C(C)=C/C=C/C(C)=C/C=C/C=C(C)/C=C/C=C(C)/C=C/C2=C(C)CCCC2(C)C)C(C)(C)CCC1 [BETA CAROTENE] | Negative: based on the absence of positive reported data from WMDD |
| COCCCC/C(=N\OCCN)c1ccc(C(F)(F)F)cc1 [FLUVOXAMINE] | Positive: weak inducer based on presence of foamy macrophages and cytoplasmic vacuolations |
| CCN(CC)C(=O)[C@@H]1C=C2c3cccc4[nH]cc(c34)C[C@H]2N(C)C1 [LYSERGIDE] | Positive: weak inducer based on presence of foamy macrophages and cytoplasmic vacuolations |
| CC(C)C[C@H](N)C(=O)O [LEUCINE] | Negative: based on the absence of positive reported data from WMDD |
| CC12CC3CC(C)(C1)CC(N)(C3)C2 [MEMANTINE] | Positive: weak inducer based on presence of foamy macrophages and cytoplasmic vacuolations |
| CC1(C)NC(=O)N(C[C@@H](COc2ccc(-c3ccc(OC(F)(F)F)cc3)cc2)N(O)C=O)C1=O | Negative: confirmed by electron microscopy |
| NS(=O)(=O)c1cc2c(cc1Cl)N=CNS2(=O)=O [CHLOROTHIAZIDE] | Negative: based on the absence of positive reported data from WMDD |
| O=C1c2ccccc2C(=O)C1c1ccccc1 [PHENINDIONE] | Negative: based on the absence of positive reported data from WMDD |
| c1ccc([C@H]2CN3CCSC3=N2)cc1 [LEVAMISOLE] | Negative: based on the absence of positive reported data from WMDD |
| CC(CN1CC(=O)NC(=O)C1)N1CC(=O)NC(=O)C1 (centres undefined) [RAZOXANE] | Negative: based on the absence of positive reported data from WMDD |
| COc1ccc(CC2c3cc(OC)c(OC)cc3CC[N+]2(C)CCC(=O)OCCCCCOC(=O)CC[N+]2(C)CCc3cc(OC)c(OC)cc3C2Cc2ccc(OC)c(OC)c2)cc1OC (centres undefined) | Negative: based on the absence of positive reported data from WMDD |
| CCC(=O)O[C@@H](O[P@](=O)(CCCCc1ccccc1)CC(=O)N1C[C@H](C2CCCCC2)C[C@H]1C(=O)O)C(C)C [FOSINOPRIL] | Negative: based on the absence of positive reported data from WMDD |
| NCCc1cc(O)c(O)c(O)c1 | Positive: strong inducer confirmed by electron microscopy |
| CC[C@]1(O)C[C@@H]2CN(CCc3c([nH]c4ccccc34)[C@@](C(=O)OC)(c3cc4c(cc3OC)N(C)[C@H]3[C@@](O)(C(=O)OC)[C@H](OC(C)=O)[C@]5(CC)C=CCN6CC[C@]43[C@@H]65)C2)C1 [VINBLASTINE] | Negative: confirmed by electron microscopy |

| SMILES | Phospholipidosis |
| --- | --- |
| C[C@]12C=CC(=O)C=C1C(Cl)=C[C@@H]1[C@@H]2[C@@H](O)C[C@@]2(C)[C@H]1CC[C@]2(O)C(=O)CO [CLOPREDNOL] | Negative: based on the absence of positive reported data from WMDD |
| CC1(C)S[C@@H]2[C@H](N3C(=O)[C@@H](c4ccccc4)NC3(C)C)C(=O)N2[C@H]1C(=O)O [HETACILLIN] | Negative: based on the absence of positive reported data from WMDD |
| CCn1cc(C(=O)O)c(=O)c2cc3c(cc21)OCO3 [OXOLINIC ACID] | Negative: based on the absence of positive reported data from WMDD |
| CCCSc1ccc2nc(NC(=O)OC)[nH]c2c1 [ALBENDAZOLE] | Negative: based on the absence of positive reported data from WMDD |
| CS(=O)(=O)c1ccc(C2=C(c3ccccc3)C(=O)OC2)cc1 [ROFECOXIB] | Negative: based on the absence of positive reported data from WMDD |
| Cc1c(-c2ccccc2)n(/N=N/n2c(-c3ccccc3)c(C)[n+]3ccccc23)c2cccc[n+]12.[Br-].[Br-] [FAZADINIUM BROMIDE] | Negative: based on the absence of positive reported data from WMDD |
| Cc1ccc(S(=O)(=O)NC(=O)NN2CC3CCCC3C2)cc1 (centres undefined) [GLICLAZIDE] | Negative: based on the absence of positive reported data from WMDD |
| COc1ccc2cc1Oc1cc3c(cc1OC)CC[N+](C)(C)[C@H]3Cc1ccc(cc1)Oc1c(OC)c(OC)cc3c1[C@@H](C2)[N+](C)(C)CC3 [METOCURINE] | Negative: based on the absence of positive reported data from WMDD |
| C=CCN1C(=O)C(CC(C)C)NC1=S (centres undefined) [ALBUTOIN] | Negative: based on the absence of positive reported data from WMDD |
| NNC(=O)c1ccncc1 [ISONIAZID] | Negative: based on the absence of positive reported data from WMDD |
| CC(C)NCC1CCc2cc(CO)c([N+](=O)[O-])cc2N1 (centres undefined) [OXAMNIQUINE] | Negative: based on the absence of positive reported data from WMDD |
| CCC1(CC)C(=O)NC(=O)NC1=O [BARBITAL] | Negative: based on the absence of positive reported data from WMDD |
| NC12CC3CC(CC(C3)C1)C2 [AMANTADINE] | Positive: strong inducer confirmed by electron microscopy |
| CC(C)(Oc1ccc(C2CC2(Cl)Cl)cc1)C(=O)O (centres undefined) [CIPROFIBRATE] | Negative: confirmed by electron microscopy |
| Nc1ccn([C@@H]2CS[C@H](CO)O2)c(=O)n1 [LAMIVUDINE] | Negative: based on the absence of positive reported data from WMDD |
| Cc1ccc(C(=O)c2cc(O)c(O)c([N+](=O)[O-])c2)cc1 [TOLCAPONE] | Negative: based on the absence of positive reported data from WMDD |
| Nc1ccn([C@@H]2O[C@H](CO)[C@@H](O)[C@@H]2O)c(=O)n1 [CYTARABINE] | Negative: based on the absence of positive reported data from WMDD |
| CCCCNC(=O)NS(=O)(=O)c1ccc(N)cc1 [CARBUTAMIDE] | Negative: based on the absence of positive reported data from WMDD |
| CC1(C)S[C@@H]2[C@H](NC(=O)[C@H](N)c3ccc(O)cc3)C(=O)N2[C@H]1C(=O)O [AMOXICILLIN] | Negative: based on the absence of positive reported data from WMDD |
| CC(C)NCC(O)COc1cccc2[nH]ccc12 (centres undefined) [PINDOLOL] | Negative: based on the absence of positive reported data from WMDD |

| SMILES | Phospholipidosis |
| --- | --- |
| Clc1ccccc1CN1CCc2sccc2C1 [TICLOPIDINE] | Negative: based on the absence of positive reported data from WMDD |
| CNCCCC12CCC(c3ccccc31)c1ccccc12 [MAPROTILINE] | Positive: strong inducer confirmed by electron microscopy |
| NNc1nncc2ccccc12 [HYDRALAZINE] | Negative: based on the absence of positive reported data from WMDD |
| CCCC(=O)c1ccc2c(c1)N(CCCN1CCN(C)CC1)c1ccccc1S2 [BUTAPERAZINE] | Negative: based on the absence of positive reported data from WMDD |
| CN(C)CCCN1c2ccccc2C(C)(C)c2ccccc21 [DIMETACRINE] | Negative: based on the absence of positive reported data from WMDD |
| CCCCC(=O)O[C@]1(C(=O)COC(C)=O)CC[C@H]2[C@@H]3CCC4=CC(=O)C=C[C@]4(C)[C@H]3[C@@H](O)C[C@@]21C [PREDNISOLONE VALERATE ACETATE] | Negative: based on the absence of positive reported data from WMDD |
| CN1CCN(CC/C=C2/c3ccccc3Sc3ccc(S(=O)(=O)N(C)C)cc32)CC1 [THIOTHIXENE] | Negative: based on the absence of positive reported data from WMDD |
| CCCCN(CCCC)CCNc1nc(-c2ccccc2)no1 [BUTALAMINE] | Negative: based on the absence of positive reported data from WMDD |
| CC(C)NCC(O)COc1ccc(CCOCC2CC2)cc1 (centres undefined) [BETAXOLOL] | Negative: based on the absence of positive reported data from WMDD |
| NS(=O)(=O)c1cc(Cl)c(Cl)c(S(N)(=O)=O)c1 [DICHLORPHENAMIDE] | Negative: based on the absence of positive reported data from WMDD |
| O=C(O)c1cccnc1 [NIACIN] | Negative: based on the absence of positive reported data from WMDD |
| C[C@H]1[C@H](c2ccccc2)OCCN1C [PHENDIMETRAZINE] | Negative: based on the absence of positive reported data from WMDD |
| CN1CC(O)C2=C/C(=N/NC(N)=O)C(=O)C=C21 (centres undefined) [CARBAZOCHROME] | Negative: based on the absence of positive reported data from WMDD |
| COc1cc([C@@H]2c3cc4c(cc3[C@@H](O[C@@H]3O[C@@H]5CO[C@@H](C)O[C@H]5[C@H](O)[C@H]3O)[C@H]3COC(=O)[C@H]23)OCO4)cc(OC)c1O [ETOPOSIDE] | Negative: confirmed by electron microscopy |
| O=C(O)c1cc(/N=N/c2ccc(O)c(C(=O)O)c2)ccc1O [OLSALAZINE] | Negative: based on the absence of positive reported data from WMDD |
| CC/C(=C(\c1ccccc1)c1ccc(OCCN(C)C)cc1)c1ccccc1 [TAMOXIFEN] | Positive: strong inducer confirmed by electron microscopy |
| CC[N+]1(C)[C@@H]2CC(OC(=O)[C@H](CO)c3ccccc3)C[C@H]1[C@@H]1O[C@@H]12.[Br-] (some centres undefined) [OXITROPIUM BROMIDE] | Negative: based on the absence of positive reported data from WMDD |
| O=C1Nc2ccc(Cl)cc2C(c2ccccc2Cl)=NC1O (centres undefined) [LORAZEPAM] | Negative: based on the absence of positive reported data from WMDD |
| C#C[C@]1(OC(C)=O)CC[C@H]2[C@@H]3CCC4=CC(=O)CC[C@@H]4[C@H]3CC[C@@]21C [NORETHINDRONE ACETATE] | Negative: based on the absence of positive reported data from WMDD |
